“Also recorded” adds a separate entry of the source. Where a name gives a salt, the structure may show the parent alone.
Experiments:
[1] = tested on: PKCβ activation of SREBP-1c; test: SREBP-1c transactivation, Gal4-luciferase reporter with constitutively active PKCβ in HepG2 cells; type: cell-based, human; settings: LY333,531 5 μM, PD98059 20 μM, GSK690693 1 μM
Experimental: (Gal4)5-luciferase reporter plasmid (0.6 μg) was co-transfected with a plasmid encoding either Gal4-DNA binding region (Gal4-DBD) or activation domain of SREBP-1 c linked to Gal4-DNA binding domain (Gal4-DBD-SREBP-1AD) (0.3 μg) (23) and pCMV-8-galactosidase (0.1 μg), along with constitutively active PKCβ cDNA (0.1 μg), in human hepatoma HepG2 cells in the absence or presence of LY333,531 (5 μM), PD98059 (20 μM) or GSK690693 (1 μM). Fold induction represens luciferase activity on PKCβ transfection relative to basal expression level in the absence of PKCβ expression vector (taken as 1). Luciferase activity was normalized to β-galactosidase activity.
To determine whether PKCβ deficiency affected the activation of hepatic SREBP-1c, a plasmid was used in which activation domain of SREBP-1c is fused to the Gal4-DBD and evaluated the activation of a Gal4-responsive reporter plasmid by overexpressed PKCβ in the absence or presence of indicated inhibitor.

[2] = tested on: C57BL6 mouse model fed HFD or HFHC diet; test: Efficacy of PKCβ inhibitors on diet-induced obesity and hepatic steatosis in C57BL6 mice; type: in vivo; settings: for weight gain, intraperitoneal administration / weight gain, oral administration: mice on high fat diet; for weight gain, intraperitoneal administration: i.p. (FIG. 12C); for weight gain, oral administration: oral gavage (FIG. 12D); for liver TG levels: diet-fed mice (FIGS. 12H, 12I)
Experimental: FIG. 12E compares food intake in mice fed HFD for and the indicated PKCb inhibitor was administered by i.p. FIG. 12F compares food intake in mice fed HFD and the indicated PKCb inhibitor was administered orally by gavage.
To test and compare therapeutic efficacy of these inhibitors, the following experiment was set up in a C57BL6 mouse model (20 animals per study). C57BL6 mice (7 week old male mice) were fed either HFD or HFHC diet and were either untreated or treated on the same day with an indicated PKCb inhibitor. The PKCb inhibitor was administered to these mice either by i.p. or oral gavage.
The inhibitors were administered by i.p. (FIG. 12C) or gavage (FIG. 12D).

[3] = biological target: Recombinant PKCβ (Homo sapiens, UniProt P05771); test: PKCb assay: phosphorylation of Histone H3 (Ser10) by recombinant PKCβ, immunoblot, no lipid activator; type: biochemical; settings: basal PKCb, lipid activator not included; P-Ser10-Histone H3 by immunoblotting, 30° C., 6 minutes
Experimental: Recombinant PKCβ (11ng) was mixed with purified Histone H3 (20 ng) and incubated at 30° C. for 6 minutes and phosphorylated Histone H3 (P^ser10-Histone H3) assessed by immunoblotting using specific antibodies (FIG. 11). Lipid activator was not included our assay because we were interested in finding chemicals inhibiting PKCb in its basal state.

Sequence of Recombinant PKCβ (P05771 whole entry, species assumed): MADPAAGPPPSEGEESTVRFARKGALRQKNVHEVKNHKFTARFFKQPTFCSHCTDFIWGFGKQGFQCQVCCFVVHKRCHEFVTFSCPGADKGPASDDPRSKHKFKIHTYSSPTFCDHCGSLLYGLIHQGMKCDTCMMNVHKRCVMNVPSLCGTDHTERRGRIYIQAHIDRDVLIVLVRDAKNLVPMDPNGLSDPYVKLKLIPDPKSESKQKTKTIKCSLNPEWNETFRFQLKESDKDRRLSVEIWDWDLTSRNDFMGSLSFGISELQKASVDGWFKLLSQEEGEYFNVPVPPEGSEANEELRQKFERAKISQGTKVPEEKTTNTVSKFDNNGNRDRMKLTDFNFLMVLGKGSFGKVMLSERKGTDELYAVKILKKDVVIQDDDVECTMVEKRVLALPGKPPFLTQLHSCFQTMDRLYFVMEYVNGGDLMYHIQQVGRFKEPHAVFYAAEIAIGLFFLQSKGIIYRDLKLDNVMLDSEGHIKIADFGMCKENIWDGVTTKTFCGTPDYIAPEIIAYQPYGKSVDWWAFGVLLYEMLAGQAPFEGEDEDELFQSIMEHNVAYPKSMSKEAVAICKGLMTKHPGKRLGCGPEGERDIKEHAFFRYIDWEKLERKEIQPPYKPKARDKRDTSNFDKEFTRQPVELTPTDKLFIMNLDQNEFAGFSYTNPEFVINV

Row | Structure (SMILES) | activation of SREBP-1c plasmid by overexpressed PKCβ in presence of inhibitor [1] | weight gain, intraperitoneal administration [2] | weight gain, oral administration [2] | IC50 [3] [µM] | liver TG levels [2] | diet-induced obesity ([2]; mice (FIG. 12G))
1 | CN(C)C[C@@H]1CCn2cc(c3ccccc32)C2=C(C(=O)NC2=O)c2cn(c3ccccc23)CCO1 [LY333531, Ruboxistaurin hydrochloride, reference compound] | this activation was blocked | reduction in weight gain | caused an increase in weight gain | – | – | –
2 | Cn1cc(-c2c(-c3c[nH]c4ccccc34)[nH][nH]c2=O)c2ccccc21 [INST5660] | – | – | – | 0.01 | reducing diet-induced liver triglyceride level | reducing diet-induced obesity
3 | N#CCCCCCn1cc(C2=C(c3cn(CCCCCC#N)c4ccccc34)C(=O)NC2=O)c2ccccc21 [INST3399] | – | reduction in weight gain | caused an increase in weight gain; also recorded: greater weight gain relative to LY333531 | 0.05 | reduces liver TG levels | –
